The text below walks through data of the supplement of paper PMC10307832.

Holding throughout (experiment): relative viability (nuclei count vs DMSO), 5 days (fraction); higher = more cells survive
Compound in assay [1]: O=C(O)c1ccc2c(c1)nc(Nc1cccc(Cl)c1)c1ccncc12 [Silmitasertib] + Nc1ncn([C@H]2C[C@H](O)[C@@H](CO)O2)c(=O)n1 [Decitabine] (partner 2 µM)
In short, it runs like this: (§1)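 The day after seeding in 1536-well plates, lung cancer cell lines were treated by pin tool with a single drug, or with a fixed anchor-drug dose together with five library-drug doses (not always all listed) in √10 steps. After 5 days, a combined fix-and-stain solution (final 0.05% Triton X-100, 1% formaldehyde, 1 ug/ml Hoechst) was added. Nuclei counted on 4× images gave relative viability as treated counts over vehicle counts, reported as the median of duplicate plates.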

Compound in assay [2]: O=C(O)c1ccc2c(c1)nc(Nc1cccc(Cl)c1)c1ccncc12 [Silmitasertib] + COc1cccc2cc(-c3nc([C@H]4CC[C@H](C(=O)O)CC4)n4ncnc(N)c34)[nH]c12 [OSI-027] (partner 0.5 µM)
In short, it runs like this:
as §1

Compound in assay [3]: O=C(O)c1ccc2c(c1)nc(Nc1cccc(Cl)c1)c1ccncc12 [Silmitasertib] + CC(C)C[C@H](NC(=O)[C@H](Cc1ccccc1)NC(=O)c1cnccn1)B(O)O [Bortezomib] (partner 0.002 µM)
In a few lines:
as §1

Compound in assay [4]: O=C(O)c1ccc2c(c1)nc(Nc1cccc(Cl)c1)c1ccncc12 [Silmitasertib] + Nc1nc2[nH]cc(CCc3ccc(C(=O)N[C@@H](CCC(=O)O)C(=O)O)cc3)c2c(=O)[nH]1 [Pemetrexed] (partner 0.2 µM)
In a few lines:
as §1

Compound in assay [5]: O=C(O)c1ccc2c(c1)nc(Nc1cccc(Cl)c1)c1ccncc12 [Silmitasertib] + C[C@@H](Oc1cc(-c2cnn(C3CCNCC3)c2)cnc1N)c1c(Cl)ccc(F)c1Cl [Crizotinib] (partner 1 µM)
In short, it runs like this: as §1

As to 201T, the relative viability in assay [1] (first compound 0.04 µM) was 0.851; in assay [1] (first compound 0.4 µM), 0.841; in assay [1] (first compound 1.265 µM), 0.847; in assay [1] (first compound 4 µM), 0.903; in assay [2] (first compound 0.04 µM), 0.821; in assay [2] (first compound 0.4 µM), 0.631. Moreover, the relative viability in assay [2] (first compound 1.265 µM) is 0.719; in assay [2] (first compound 4 µM), 0.462; in assay [3] (first compound 0.04 µM), 1.03; in assay [3] (first compound 0.4 µM), 1.1; in assay [3] (first compound 1.265 µM) it was 1.16; in assay [3] (first compound 4 µM) it was 1.2. Further, the relative viability in assay [4] (first compound 0.04 µM) is 0.381; in assay [4] (first compound 0.4 µM), 0.229; in assay [4] (first compound 1.265 µM) it was 0.341; in assay [4] (first compound 4 µM), 0.381; in assay [5] (first compound 0.04 µM) it was 0.999; in assay [5] (first compound 0.4 µM) it was 0.991. In addition, the relative viability in assay [5] (first compound 1.265 µM) stood at 1.07; in assay [5] (first compound 4 µM), 1.18.
Consider A-427, for which the relative viability turned out to be 0.525 in assay [1] (first compound 0.04 µM); 0.554 in assay [1] (first compound 0.4 µM); 0.461 in assay [1] (first compound 1.265 µM); 0.421 in assay [1] (first compound 4 µM); 0.617 in assay [2] (first compound 0.04 µM); 0.425 in assay [2] (first compound 1.265 µM). Also, the relative viability stood at 0.192 in assay [2] (first compound 4 µM); 1.1 in assay [3] (first compound 0.04 µM); 1.24 in assay [3] (first compound 1.265 µM); 0.703 in assay [3] (first compound 4 µM); 1.04 in assay [4] (first compound 0.04 µM); 0.826 in assay [4] (first compound 0.4 µM). Further, the relative viability was 1.05 in assay [4] (first compound 1.265 µM); 0.669 in assay [4] (first compound 4 µM); 0.888 in assay [5] (first compound 0.04 µM); 0.805 in assay [5] (first compound 1.265 µM); 0.63 in assay [5] (first compound 4 µM).
ABC-1: the relative viability in assay [1] (first compound 0.04 µM) amounted to 1.44; in assay [1] (first compound 0.4 µM), 1.05; in assay [1] (first compound 1.265 µM), 0.686; in assay [1] (first compound 4 µM) it was 0.922; in assay [2] (first compound 0.04 µM) it was 0.52; in assay [2] (first compound 0.4 µM), 0.37. Further, the relative viability in assay [2] (first compound 1.265 µM) worked out at 0.221; in assay [2] (first compound 4 µM) it was 0.226; in assay [3] (first compound 0.04 µM) it was 0.402; in assay [3] (first compound 0.4 µM), 0.353; in assay [3] (first compound 1.265 µM), 0.281; in assay [3] (first compound 4 µM), 0.226. Also, the relative viability in assay [5] (first compound 0.04 µM) is 1.27; in assay [5] (first compound 0.4 µM), 1; in assay [5] (first compound 1.265 µM), 0.516; in assay [5] (first compound 4 µM) it was 0.445.
As to BEN, the relative viability in assay [1] (first compound 0.04 µM) is 0.866; in assay [1] (first compound 0.4 µM) it was 0.685; in assay [1] (first compound 1.265 µM), 0.537; in assay [1] (first compound 4 µM), 0.656; in assay [2] (first compound 0.04 µM), 0.317; in assay [2] (first compound 1.265 µM), 0.336. Also, the relative viability amounted to 0.269 in assay [2] (first compound 4 µM); 0.9 in assay [3] (first compound 0.04 µM); 0.584 in assay [3] (first compound 0.4 µM); 0.644 in assay [3] (first compound 1.265 µM); 0.599 in assay [3] (first compound 4 µM); 0.905 in assay [4] (first compound 0.04 µM). For the same cell line, the relative viability is 0.715 in assay [4] (first compound 0.4 µM); 0.703 in assay [4] (first compound 1.265 µM); 0.609 in assay [4] (first compound 4 µM); 0.974 in assay [5] (first compound 0.04 µM); 0.827 in assay [5] (first compound 0.4 µM); 0.739 in assay [5] (first compound 1.265 µM). The relative viability in assay [5] (first compound 4 µM) is 0.846.
In the case of CAL-12T, the relative viability was 0.839 in assay [2] (first compound 0.04 µM); 0.542 in assay [2] (first compound 0.4 µM); 0.29 in assay [2] (first compound 1.265 µM); 0.23 in assay [2] (first compound 4 µM); 1.12 in assay [3] (first compound 0.04 µM); 0.949 in assay [3] (first compound 0.4 µM). For the same cell line, the relative viability was found to be 0.777 in assay [3] (first compound 1.265 µM); 0.709 in assay [3] (first compound 4 µM); 1.35 in assay [4] (first compound 0.04 µM); 1.06 in assay [4] (first compound 0.4 µM); 0.889 in assay [4] (first compound 1.265 µM); 0.818 in assay [4] (first compound 4 µM). Besides, the relative viability was 0.685 in assay [5] (first compound 0.04 µM), 0.423 in assay [5] (first compound 0.4 µM), 0.542 in assay [5] (first compound 1.265 µM) and 0.318 in assay [5] (first compound 4 µM).
With COR-L23, the relative viability in assay [1] (first compound 0.04 µM) came to 0.495; in assay [1] (first compound 0.4 µM), 0.507; in assay [1] (first compound 1.265 µM), 0.501; in assay [1] (first compound 4 µM), 0.368; in assay [2] (first compound 0.04 µM), 0.786; in assay [2] (first compound 0.4 µM), 0.496. The relative viability amounted to 0.828 in assay [2] (first compound 1.265 µM); 0.419 in assay [2] (first compound 4 µM); 1.15 in assay [3] (first compound 0.04 µM); 0.723 in assay [3] (first compound 0.4 µM); 0.919 in assay [3] (first compound 1.265 µM); 0.932 in assay [3] (first compound 4 µM). The relative viability came out at 0.206 in assay [4] (first compound 0.04 µM); 0.223 in assay [4] (first compound 0.4 µM); 0.181 in assay [4] (first compound 1.265 µM); 0.192 in assay [4] (first compound 4 µM); 0.665 in assay [5] (first compound 0.04 µM); 0.67 in assay [5] (first compound 0.4 µM). The relative viability amounted to 0.727 in assay [5] (first compound 1.265 µM) and 0.629 in assay [5] (first compound 4 µM).
With COR-L 105, the relative viability came out at 0.626 in assay [1] (first compound 0.04 µM); 0.599 in assay [1] (first compound 0.4 µM); 0.672 in assay [1] (first compound 1.265 µM); 0.454 in assay [1] (first compound 4 µM); 0.767 in assay [2] (first compound 0.04 µM); 0.617 in assay [2] (first compound 0.4 µM). For the same cell line, the relative viability came out at 0.58 in assay [2] (first compound 1.265 µM); 0.348 in assay [2] (first compound 4 µM); 0.803 in assay [3] (first compound 0.04 µM); 0.708 in assay [3] (first compound 0.4 µM); 0.64 in assay [3] (first compound 1.265 µM); 0.414 in assay [3] (first compound 4 µM). The relative viability in assay [4] (first compound 0.04 µM) turned out to be 1.05; in assay [4] (first compound 0.4 µM), 1.19; in assay [4] (first compound 1.265 µM), 0.951; in assay [4] (first compound 4 µM) it was 0.785; in assay [5] (first compound 0.04 µM) it was 0.881; in assay [5] (first compound 0.4 µM) it was 0.679. The figures for the relative viability in assay [5] (first compound 1.265 µM) and in assay [5] (first compound 4 µM) were 0.702 and 0.501, respectively.
